Measured values as given in patent US20210395226A1, “SUBSTITUTED ARYL COMPOUND AND PREPARATION METHOD THEREFOR AND USE THEREOF” (SICHUAN KELUN-BIOTECH BIOPHARMACEUTICAL CO., LTD., priority 2018, published 2021).
pKi: −log10 of the molar value. Like-named read-outs stand apart in the source and are kept apart here.

How the values were obtained:
[1] = target: T1, Adenosine A1 receptor (human) membrane (Homo sapiens, UniProt P30542); experiment: Determination of competitive inhibition constant (Ki) for adenosine A1 receptor, [3H]-DPCPX radioligand; type: binding; settings: 1.0 nM [3H]-DPCPX
T1 construct: purchased PerkinElmer ES-010-M400UA
T1 sequence (P30542 1-326): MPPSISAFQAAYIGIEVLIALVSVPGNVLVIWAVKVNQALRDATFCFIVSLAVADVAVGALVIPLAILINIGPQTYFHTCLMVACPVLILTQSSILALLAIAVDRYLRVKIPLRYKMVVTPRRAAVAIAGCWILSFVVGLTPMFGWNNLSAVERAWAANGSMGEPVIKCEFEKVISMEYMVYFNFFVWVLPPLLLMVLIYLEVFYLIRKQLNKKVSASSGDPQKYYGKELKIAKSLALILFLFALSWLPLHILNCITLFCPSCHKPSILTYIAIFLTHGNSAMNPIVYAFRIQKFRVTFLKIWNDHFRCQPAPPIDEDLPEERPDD
Summary of the method: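 Human A1 receptor membranes (2.5 μg/well) incubated with 1.0 nM [3H]-DPCPX and test compound for 1 h at room temperature in HEPES/MgCl2/CaCl2/NaCl buffer, pH 7.4; 1000 nM CGS-15943 defined low control. Bound radioactivity collected on PEI-treated GF/C filters and counted; IC50 converted to Ki via Cheng–Prusoff using ligand Kd.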

[2] = Pharmacokinetics (PK) and distribution in brain tissue in rats; type: in vivo, male SD rats; settings: for bioavailability / Cmax / AUC(0-t): male, SD; for bioavailability: plasma, oral 5 mg/kg compared with intravenous 1 mg/kg; for bioavailability / Plasma AUClast/brain AUClast: rat; for Cmax / AUC(0-t): rat plasma; for AUClast (brain): rat brain tissue
Procedure: Test Example 3: Study on Pharmacokinetics (PK) and Distribution in Brain Tissue in Rats
The compounds of the present application were administered to male SD rats by intravenous (IV) and intragastric (PO) respectively to investigate the pharmacokinetic characteristics. The dosages of IV and PO were 1 mg/kg and 5 mg/kg, respectively. The solvent for IV was a mixture of 5% DMSO, 5% Solutol (polyethylene glycol 15-hydroxystearate) and 90% saline, and the solvent for PO was 0.5% MC (methyl cellulose sodium). Before IV administration (0 h) and at 0.083 h, 0.25 h, 0.5 h, 1 h, 2 h, 4 h, 6 h, 8 h and 24 h time points after administration, blood samples were collected; before PO administration (0 h) and at 0.25 h, 0.5 h, 1 h, 2 h, 4 h, 6 h, 8 h and 24 h time points after administration, blood samples were collected; the blood samples were anticoagulated with EDTA.K2, and centrifuged to obtain plasma samples. For Compound 11, brain tissue samples were taken and homogenized at 0.25 h, 0.5 h, 1 h, 4 h and 8 h; for Compounds 19 and 32, and brain tissue samples were taken and homogenized at 0.25 h, 0.5 h, 1 h and 8 h (three SD rats were selected for the experiment of distribution in brain tissue at each time point), and the resulting brain tissue homogenate samples were stored at −80° C. The plasma samples and brain tissue homogenate samples were subjected to precipitation of protein, and then LC-MS/MS analysis was performed.
Pharmacokinetic parameters were calculated by means of non-compartmental model by using WinNonlin 6.3 software.

[3] = target: T2, Adenosine A2a receptor (human) membrane (Homo sapiens, UniProt P29274); experiment: Determination of competitive inhibition constant (Ki) for adenosine A2a receptor, [3H]-CGS-21680 radioligand; type: binding; settings: for pKi: human A2a receptor membrane, 6.0 nM [3H]-CGS-21680, read-out: Ki(A2a); for Ki(A1)/Ki(A2a): selectivity ratio A1 over A2a
T2 construct: purchased PerkinElmer RBHA2AM400UA
T2 sequence (P29274 whole entry): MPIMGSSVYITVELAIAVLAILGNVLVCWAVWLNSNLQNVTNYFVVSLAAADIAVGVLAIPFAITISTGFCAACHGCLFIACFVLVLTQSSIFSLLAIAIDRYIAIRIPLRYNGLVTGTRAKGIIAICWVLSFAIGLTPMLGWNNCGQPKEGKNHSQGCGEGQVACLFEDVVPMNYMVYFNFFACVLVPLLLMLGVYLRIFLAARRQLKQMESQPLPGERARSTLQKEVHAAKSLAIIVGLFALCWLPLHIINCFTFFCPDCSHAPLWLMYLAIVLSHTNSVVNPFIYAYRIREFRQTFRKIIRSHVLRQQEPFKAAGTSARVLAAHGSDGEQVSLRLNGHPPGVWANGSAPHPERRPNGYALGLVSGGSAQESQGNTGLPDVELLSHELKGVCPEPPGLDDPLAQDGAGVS
Summary of the method: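 Human A2a receptor membranes (5.0 μg/well) were incubated 2 h at room temperature with [3H]-CGS-21680 (working concentration 6.0 nM) in 50 mM Tris-HCl pH 7.4, 10 mM MgCl2, 1 mM EDTA. Bound label was collected on PEI-treated GF/C filters and scintillation counted. Inhibition was scaled between 0.5% DMSO and 1000 nM CGS-15943 controls, IC50 was fitted, and Ki = IC50/(1 + [ligand]/Kd).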

[4] = PO, 5 mg/kg, read-out: AUClast (plasma)

Structure (SMILES) | pKi [1] | bioavailability [2] | Cmax ([2]; IV, 1 mg/kg) | AUC(0-t) ([2]; IV, 1 mg/kg, read-out: AUClast) | AUC(0-t) [2, 4] | AUClast (brain) ([2]; PO, 5 mg/kg) | Plasma AUClast/brain AUClast ([2]; PO, 5 mg/kg) | pKi [3] | Ki(A1)/Ki(A2a) [3]
Cc1ncnc2ccc(-c3cnc(NC(=O)N4CCOCC4)nc3-c3ccc(F)cc3)cc12 [Compound 11, N-(4-(4-fluorophenyl)-5-(4-methylquinazolin-6-yl)pyrimidin-2-yl) morpholine-4-carboxamide] | 6.69 | 65.3% | 1310 ng/mL | 985 ng·h/mL | 3220 ng·h/mL | 11.4 ng·h/g | 282/1 | 8.47 | 59.9
Cc1cc(-c2cnc(NC(=O)N3CCOCC3)nc2-c2ccc(F)cc2)cc(Cl)n1 [Compound 19, N-(5-(2-chloro-6-methylpyridin-4-yl)-4-(4-fluorophenyl)pyrimidin-2-yl) morpholine-4-carboxamide] | 5.85 | 86.8% | 1150 ng/mL | 2630 ng·h/mL | 11400 ng·h/mL | 70.2 ng·h/g | 163/1 | 8.02 | 146.3
